Series [1] is described as follows: Compound toxicity by ATPlite 1 Step (total ATP levels) in HepAD38 cells. Format: cell-based. The conditions noted are these: human, day of harvest, concentration reducing total ATP levels by 50% relative to no drug controls. Here is the method: (§1) Methods: HepAD38 cells are maintained as previously reported (Ladner et al, Antimicrob. Agents Chemother. 1997, […], 1715). Briefly, cells are passaged upon attaining confluency in DMEM/F12 media in the presence of 10% FBS, Penn/Strep, 250 μg/mL G418, and 1 μg/ml tetracycline. Novel compounds are screened by first washing cells three times with PBS to remove tetracycline, and plating in 96 well plates at 35,000 cells/well. Compounds dissolved in DMSO are then diluted 1:200 into wells containing cells. Five days after compound addition, material is harvested for analysis. For an extended 8 day analysis, cells are plated and treated as described above, but media and compound are refreshed on d2 and d5 post initial treatment.
Additionally, on day of harvest, compound toxicity is evaluated by treating cells with ATPlite 1 Step according to the manufacturer's protocol. Compound concentrations that reduce total ATP levels in wells by 50% relative to no drug controls (CC50) are reported; CC50 ranges are as follows: A>30 μM; B 10-30 μM; C<10 μM.
In general terms: In ATP-based viability assays light output follows the ATP content of the culture.

Series [2] deals with HBV. As to the kind of experiment: HepAD38 antiviral screen: reduction of viral product accumulation (virion DNA by qPCR; HBsAg/HBeAg ELISA). To be noted: Hepatitis B virus. Format: cell-based. Here is the method:
as §1
On harvest day, virion DNA is obtained by lysing with Sidestep Lysis and Stabilization Buffer and then quantified via quantitative real time PCR. Commercially available ELISA kits are used to quantitate the viral proteins HBsAg (Alpco) or HbeAg (US Biological) by following the manufacturer's recommended protocol after diluting samples to match the linear range of their respective assays. Irrespective of readout, compound concentrations that reduce viral product accumulation in the cell lysates or supernatants by relative to no drug controls (EC50) are reported; EC50 ranges are as follows: A<1 μM; B 1-10 μM; C>10 μM.
Background: Quantitative PCR measures a nucleic acid by following its amplification.

Setting [3] is: 120 h, HepAD38 cells, harvest five days after compound addition, reduction of viral product accumulation relative to no drug controls, read-out: HepAD38 EC50.

Read-outs that look alike come from different tables or passages of the source.

A word on the CC50: it is the concentration that lowers cell viability or growth by half. Lower therefore signals greater toxicity to the cells. By EC50 is commonly meant the midpoint of the concentration-response curve. In series [1], `CCOC(=O)C1=C(CC2CCC[C@H]2C(=O)O)NC(c2nccs2)=NC1C1CCCCC1` (stereo partly drawn) [Example 6] yielded a CC50 greater than 30 µM. Further, in series [2] (setting [3]), the EC50 is greater than 10 µM.

`COC(=O)CC1=C(c2ccn(C)n2)C(c2ccc(F)cc2Cl)N=C(c2nccs2)N1` (stereo not drawn) [Example 44] yielded a CC50 in series [1] greater than 30 µM. Further, in series [2] (setting [3]), the EC50 was in the range of 1 to 10 µM.

For `COCC1=C(C)NC(c2nccs2)=NC1c1ccc(F)cc1Cl` (racemic) [Example 10], the cytotoxic concentration (CC50) in series [1] is greater than 30 µM. Also, in series [2] (setting [3]), the EC50 is 1 to 10 µM.

`Cn1ccc(C2=C(CN3CC(F)(F)C[C@H]3C(=O)O)NC(c3nccs3)=NC2c2ccc(F)cc2Cl)n1` (stereo partly drawn) [Example 38] displayed a CC50 in series [1] greater than 30 µM. Also, the EC50 in series [2] (setting [3]) is less than 1 µM.

Turning to `CCOP(=O)(OCC)C1=C(C)NC(c2nccs2)=NC1c1ccc(F)cc1Cl` (racemic) [Example 26], the half-maximal cytotoxic concentration (CC50) in series [1] is greater than 30 µM. In addition, the EC50 in series [2] (HePAD38, 120 h, read-out: HepAD38 EC50 (μM)) is greater than 10 µM.

`CCOC(=O)C1=C(CC2CC(F)(F)C[C@H]2C(=O)O)NC(c2nccs2)=NC1C1CCCC1` (stereo partly drawn) [Example 7] yielded a CC50 in series [1] greater than 30 µM. Moreover, the EC50 in series [2] (setting [3]) was in the range of 1 to 10 µM.
